The subject of this test is Mannhemia hemolytica KB345. As to the kind of experiment: Paper disc assay, M. hemolytica KB345 (Tilmicosin-sensitivity strain). It is filed as cell-based. The following applies: 24 h, Table 2; for zone of inhibition at 1 mg/disc: 1 mg/6 mm disk; for zone of inhibition at 3 mg/disc: 3 mg/6 mm disk; for zone of inhibition at 10 mg/disc: 10 mg/6 mm disk; for zone of inhibition at 30 mg/disc: 30 mg/6 mm disk; for zone of inhibition at 100 mg/disc: 100 mg/6 mm disk. The protocol:
(1) Antibacterial Activities Against Mannheimia and Pasteurella were Determined by the Following Steps:
1) M. hemolytica KB345 (Tilmicosin-sensitivity strain) and M. hemolytica KB346 (Tilmicosin-low sensitivity strain) were provided. KB 345 strain stored at −80° C. was seeded to BHIB agar medium (10 mL) by using Microbank beads (Pro-Lab) and platinum nail. After statically incubating the KB 345 strain for 24 hours at 37° C., it was seeded to maintaining slant BHIB agar medium (7 mL) by using platinum loop, further statically incubated for 24 hours at 37° C. to obtain slant. One platinum loop of KB 345 strain stored at the slant was inoculated into a large test tube charged with BHIB liquid medium (10 mL) and then incubated for 24 hours at 37° C. with shaking.
2) A paper disc (ADVANTEC, Φ:6 mm) was impregnated with a solution of test compound and dried under reduced pressure.
3) To a melted BHIB agar medium was inoculated 1% of the broth obtained from step 1) above to prepare a test plate. After the medium set, the paper disc prepared in step 2) above was put on the plate and it was incubated at 37° C.
4) After one day, the inhibition zone diameter and clarity (A to E) were determined.

As to `CCCNC[C@]1(O)[C@H](C)O[C@@H](O[C@H]2[C@H](C)[C@@H](O[C@@H]3O[C@H](C)C[C@H](N(C)C)[C@H]3O)[C@](C)(O)C[C@@H](C)CN[C@H](C)[C@@H](O)[C@](C)(O)[C@@H](CC)OC(=O)[C@@H]2C)C[C@@]1(C)OC` [Tulathromycin, reference compound], the zone of inhibition at 1 mg/disc was 12.5 mm, the zone of inhibition at 3 mg/disc was 16 mm and the zone of inhibition at 10 mg/disc stood at 18 mm.

For `CC[C@H]1OC(=O)C[C@@H](O)[C@H](C)[C@@H](O[C@@H]2O[C@H](C)[C@@H](O[C@H]3C[C@@](C)(O)[C@@H](O)[C@H](C)O3)[C@H](N(C)C)[C@H]2O)[C@@H](CC=O)C[C@@H](C)C(=O)/C=C/C(C)=C/[C@@H]1CO[C@@H]1O[C@H](C)[C@@H](O)[C@@H](OC)[C@H]1OC` [Tylosin], the zone of inhibition at 30 mg/disc came to 10.5 mm and the zone of inhibition at 100 mg/disc turned out to be 11 mm.

Compound `CC[C@H]1OC(=O)C[C@@H](O)[C@H](C)[C@@H](O[C@@H]2OC(C)[C@@H](O)C(N(C)C)C2O)[C@@H](CCn2cc(-c3cccnc3)nn2)C[C@@H](C)C(=O)/C=C/C(C)=C/[C@@H]1CO[C@@H]1OC(C)[C@@H](O)C(OC)C1OC` (stereo partly drawn) [YT16, 20-(4-(pyridine-3-yl)-1H-1,2,3-triazol-1-yl)-20-deoxodesmycosin] registered a zone of inhibition at 3 mg/disc of 11.5 mm, a zone of inhibition at 10 mg/disc of 14.5 mm, a zone of inhibition at 30 mg/disc of 16.5 mm and a zone of inhibition at 100 mg/disc of 19 mm.

With `CC[C@H]1OC(=O)C[C@@H](O)[C@H](C)[C@@H](O[C@@H]2OC(C)[C@@H](O)C(N(C)C)C2O)[C@@H](CCn2cc(-c3cccc(N)c3)nn2)C[C@@H](C)C(=O)/C=C/C(C)=C/[C@@H]1CO[C@@H]1OC(C)[C@@H](O)C(OC)C1OC` (stereo partly drawn) [YT17], the zone of inhibition at 3 mg/disc came out at 12 mm, the zone of inhibition at 10 mg/disc is 14 mm, the zone of inhibition at 30 mg/disc is 18 mm and the zone of inhibition at 100 mg/disc amounted to 19.5 mm.

In turn, `CC[C@H]1OC(=O)C[C@@H](O)[C@H](C)[C@@H](O[C@@H]2OC(C)[C@@H](O)C(N(C)C)C2O)[C@@H](CCn2cc(-c3ccc(N)cc3)nn2)C[C@@H](C)C(=O)/C=C/C(C)=C/[C@@H]1CO[C@@H]1OC(C)[C@@H](O)C(OC)C1OC` (stereo partly drawn) [YT18] came in with a zone of inhibition at 3 mg/disc of 11 mm, a zone of inhibition at 10 mg/disc of 14.5 mm, a zone of inhibition at 30 mg/disc of 17 mm and a zone of inhibition at 100 mg/disc of 19.5 mm.

The compound `CCCCc1cn(CC[C@H]2C[C@@H](C)C(=O)/C=C/C(C)=C/[C@H](CO[C@@H]3OC(C)[C@@H](O)C(OC)C3OC)[C@@H](CC)OC(=O)C[C@@H](O)[C@H](C)[C@H]2O[C@@H]2OC(C)[C@@H](O)C(N(C)C)C2O)nn1` (stereo partly drawn) [YT20, 20-(4-butyl-1H-1,2,3-triazol-1-yl)-20-deoxodesmycosin] showed a zone of inhibition at 1 mg/disc of 9 mm, a zone of inhibition at 3 mg/disc of 11.5 mm, a zone of inhibition at 10 mg/disc of 16 mm and a zone of inhibition at 30 mg/disc of 17.5 mm. In addition, the zone of inhibition at 100 mg/disc turned out to be 20 mm.

Regarding `CC[C@H]1OC(=O)C[C@@H](O)[C@H](C)[C@@H](O[C@@H]2OC(C)[C@@H](O)C(N(C)C)C2O)[C@@H](CCn2cc(-c3ccc(-c4ccccc4)cc3)nn2)C[C@@H](C)C(=O)/C=C/C(C)=C/[C@@H]1CO[C@@H]1OC(C)[C@@H](O)C(OC)C1OC` (stereo partly drawn) [YT21], the zone of inhibition at 1 mg/disc amounted to 11.5 mm, the zone of inhibition at 3 mg/disc was determined as 13.5 mm, the zone of inhibition at 10 mg/disc was 15.5 mm and the zone of inhibition at 30 mg/disc was found to be 18 mm. The compound also returned a zone of inhibition at 100 mg/disc of 19 mm.

In turn, `CCOC(=O)c1cn(CC[C@H]2C[C@@H](C)C(=O)/C=C/C(C)=C/[C@H](CO[C@@H]3OC(C)[C@@H](O)C(OC)C3OC)[C@@H](CC)OC(=O)C[C@@H](O)[C@H](C)[C@H]2O[C@@H]2OC(C)[C@@H](O)C(N(C)C)C2O)nn1` (stereo partly drawn) [YT22, 20-(4-ethoxycarbonyl-1H-1,2,3-triazol-1-yl)-20-deoxodesmycosin] yielded a zone of inhibition at 1 mg/disc of 7.5 mm, a zone of inhibition at 3 mg/disc of 11.5 mm, a zone of inhibition at 10 mg/disc of 14.5 mm and a zone of inhibition at 30 mg/disc of 18 mm. This compound also yielded a zone of inhibition at 100 mg/disc of 21 mm.

`CC[C@H]1OC(=O)C[C@@H](O)[C@H](C)[C@@H](O[C@@H]2OC(C)[C@@H](O)C(N(C)C)C2O)[C@@H](CCn2cc(-c3ccc(Oc4ccccc4)cc3)nn2)C[C@@H](C)C(=O)/C=C/C(C)=C/[C@@H]1CO[C@@H]1OC(C)[C@@H](O)C(OC)C1OC` (stereo partly drawn) [YT24, 20-(4-(4-phenoxyphenyl)-1H-1,2,3-triazol-1-yl)-20-deoxodesmycosin] returned a zone of inhibition at 1 mg/disc of 8.5 mm, a zone of inhibition at 3 mg/disc of 12 mm, a zone of inhibition at 10 mg/disc of 14.5 mm and a zone of inhibition at 30 mg/disc of 17 mm. Moreover, the zone of inhibition at 100 mg/disc was 18 mm.

For `CC[C@H]1OC(=O)C[C@@H](O)[C@H](C)[C@@H](O[C@@H]2OC(C)[C@@H](O)C(N(C)C)C2O)[C@@H](CCn2cc(-c3cc(C)c(C)cc3C)nn2)C[C@@H](C)C(=O)/C=C/C(C)=C/[C@@H]1CO[C@@H]1OC(C)[C@@H](O)C(OC)C1OC` (stereo partly drawn) [YT25, 20-(4-(2,4,5-trimethylphenyl)-1H-1,2,3-triazol-1-yl)-20-deoxodesmycosin], the zone of inhibition at 1 mg/disc worked out at 8 mm, the zone of inhibition at 3 mg/disc is 12 mm, the zone of inhibition at 10 mg/disc stood at 14 mm and the zone of inhibition at 30 mg/disc is 17 mm. Besides, the zone of inhibition at 100 mg/disc was found to be 18.5 mm.

`CC[C@H]1OC(=O)C[C@@H](O)[C@H](C)[C@@H](O[C@@H]2OC(C)[C@@H](O)C(N(C)C)C2O)[C@@H](CCn2cc(-c3ccc(C(C)(C)C)cc3)nn2)C[C@@H](C)C(=O)/C=C/C(C)=C/[C@@H]1CO[C@@H]1OC(C)[C@@H](O)C(OC)C1OC` (stereo partly drawn) [YT26, 20-(4-(4-t-butylphenyl)-1H-1,2,3-triazol-1-yl)-20-deoxodesmycosin]: the zone of inhibition at 3 mg/disc came to 9 mm, the zone of inhibition at 10 mg/disc was 11.5 mm, the zone of inhibition at 30 mg/disc was determined as 14 mm and the zone of inhibition at 100 mg/disc came out at 16 mm.

For the compound `CCCCCOc1ccc(-c2cn(CC[C@H]3C[C@@H](C)C(=O)/C=C/C(C)=C/[C@H](CO[C@@H]4OC(C)[C@@H](O)C(OC)C4OC)[C@@H](CC)OC(=O)C[C@@H](O)[C@H](C)[C@H]3O[C@@H]3OC(C)[C@@H](O)C(N(C)C)C3O)nn2)cc1` (stereo partly drawn) [YT27, 20-(4-(4-pentyloxyphenyl)-1H-1,2,3-triazol-1-yl)-20-deoxodesmycosin], the zone of inhibition at 3 mg/disc came to 9 mm, the zone of inhibition at 10 mg/disc was found to be 11 mm, the zone of inhibition at 30 mg/disc turned out to be 13 mm and the zone of inhibition at 100 mg/disc turned out to be 16 mm.

The compound `CC[C@H]1OC(=O)C[C@@H](O)[C@H](C)[C@@H](O[C@@H]2OC(C)[C@@H](O)C(N(C)C)C2O)[C@@H](CCn2cc(Cn3nnc4ccccc43)nn2)C[C@@H](C)C(=O)/C=C/C(C)=C/[C@@H]1CO[C@@H]1OC(C)[C@@H](O)C(OC)C1OC` (stereo partly drawn) [YT28, 20-(4-(1-methyl-1H-benzotriazole)-1H-1,2,3-triazol-1-yl)-20-deoxodesmycosin] displayed a zone of inhibition at 3 mg/disc of 11 mm, a zone of inhibition at 10 mg/disc of 13 mm, a zone of inhibition at 30 mg/disc of 16 mm and a zone of inhibition at 100 mg/disc of 19 mm.

For the compound `CC[C@H]1OC(=O)C[C@@H](O)[C@H](C)[C@@H](O[C@@H]2OC(C)[C@@H](O)C(N(C)C)C2O)[C@@H](CCn2cc(CNC)nn2)C[C@@H](C)C(=O)/C=C/C(C)=C/[C@@H]1CO[C@@H]1OC(C)[C@@H](O)C(OC)C1OC` (stereo partly drawn) [YT30, 20-(4-(N-methyl-methylamine)-1H-1,2,3-triazol-1-yl)-20-deoxodesmycosin], the zone of inhibition at 100 mg/disc came out at 10 mm.

The compound `CC[C@H]1OC(=O)C[C@@H](O)[C@H](C)[C@@H](O[C@@H]2OC(C)[C@@H](O)C(N(C)C)C2O)[C@@H](CCn2cc(C(C)(C)O)nn2)C[C@@H](C)C(=O)/C=C/C(C)=C/[C@@H]1CO[C@@H]1OC(C)[C@@H](O)C(OC)C1OC` (stereo partly drawn) [YT32, 20-(4-(1-methyl-1-hydroxylethyl)-1H-1,2,3-triazol-1-yl)-20-deoxodesmycosin] showed a zone of inhibition at 10 mg/disc of 9 mm, a zone of inhibition at 30 mg/disc of 14 mm and a zone of inhibition at 100 mg/disc of 16 mm.

For the compound `CC[C@H]1OC(=O)C[C@@H](O)[C@H](C)[C@@H](O[C@@H]2OC(C)[C@@H](O)C(N(C)C)C2O)[C@@H](CCn2cc(CC(C)C)nn2)C[C@@H](C)C(=O)/C=C/C(C)=C/[C@@H]1CO[C@@H]1OC(C)[C@@H](O)C(OC)C1OC` (stereo partly drawn) [YT33, 20-(4-(2-methyl-propyl)-1H-1,2,3-triazol-1-yl)-20-deoxodesmycosin], the zone of inhibition at 3 mg/disc came out at 13 mm, the zone of inhibition at 10 mg/disc came to 16 mm, the zone of inhibition at 30 mg/disc turned out to be 17 mm and the zone of inhibition at 100 mg/disc is 20 mm.

Compound `CCCCCCCCCc1cn(CC[C@H]2C[C@@H](C)C(=O)/C=C/C(C)=C/[C@H](CO[C@@H]3OC(C)[C@@H](O)C(OC)C3OC)[C@@H](CC)OC(=O)C[C@@H](O)[C@H](C)[C@H]2O[C@@H]2OC(C)[C@@H](O)C(N(C)C)C2O)nn1` (stereo partly drawn) [YT34, 20-(4-nonyl-1H-1,2,3-triazol-1-yl)-20-deoxodesmycosin] showed a zone of inhibition at 3 mg/disc of 11 mm, a zone of inhibition at 10 mg/disc of 13 mm, a zone of inhibition at 30 mg/disc of 14 mm and a zone of inhibition at 100 mg/disc of 15 mm.

The zone of inhibition is the size of the clear area around the sample on an inoculated plate. Low values mean little suppression of growth, high ones wide suppression of growth.

Source of the values: patent publication US9593140B2, “Antibacterial tylosin derivatives and methods for their preparation” (Bayer Intellectual Property GmbH, priority 2011, dated 2017).
